Entries after “also recorded” stand apart in the source; their conditions may differ.

Experiment [1] concerns hair growth. Nature of the experiment: Stimulation of hair growth in shaved mice by subdermal/intradermal injection. It is filed as in vivo. The conditions noted are these: for significant acceleration of hair growth within, following the injection: Example 12: 500 and 1000 micrograms per mouse; for significant acceleration of hair growth within, following injection: injected once; for hair growth (photograph of injected mice): visual, injection sites versus surrounding shaved areas; for % POS. RESPONSE: hair growth at both injection sites = positive. The text has this: Increasing doses of glycyl-L-histidyl-L-lysyl-L-valyl-L-phenylalanyl-L-valine:copper(II) in aqueous solution was infiltrated under the skin in two locations. Mice are examined daily for signs of hair growth in the shaved area and at the injection sites. […] Hair growth at both injection sites is considered a positive response.
Mice were shaved and injected in two locations with an aqueous solution of glycyl-L-histidyl-L-lysine octyl ester:metal ion (GHL octyl:metal ion) at a ratio of peptide to metal ion of 2:1. A dose of 500 micrograms was injected per mouse.
Hair growth at both injection sites is considered a positive response.
Mice were shaved and injected in two locations with an aqueous solution of L-lysyl-L-histidyl-glycine octyl ester:copper(II) (LHG Octyl:Cu) and L-lysyl-L-histidyl-glycyl-L-L-valyl-L-phenylalanyl-L-valine:Cu (LGHVFV:Cu) at a ratio of peptide to metal ion of 2:1, and at a dose of 500 and 1000 micrograms per mouse. Hair growth at both injection sites is considered a positive response.
Mice were shaved and injected intradermally in two locations with various doses of glycyl-L-(3-methyl)-histidyl-L-lysyl-glycyl-L-tryptophan:copper(II). […] Hair growth at both injection sites is considered a positive response.
Mice were shaved and injected once with glycyl-L-histidyl-L-lysine n-octyl ester:copper(II) at a dose of 500 micrograms per mouse.
A group of ten mice were shaved and injected once with glycyl-L-histidyl-L-lysine decyl ester:copper(II) at a dose of 500 micrograms per mouse.
A group of 10 mice were shaved and injected once with glycyl-L-histidyl-L-lysine palmityl ester:copper(II) at a dose of 500 micrograms per mose.

The test system of experiment [2] is hair follicles and subcutaneous fat layer. Nature of the experiment: Histological evaluation of skin biopsies through the area of accelerated hair growth. The conditions noted are these: for hair follicles in histological sections / subcutaneous fat layer in histological sections: skin biopsy through the site of injection / area of accelerated hair growth. It is filed as in vivo, mice. The text has this:
Moreover, the surrounding skin contains telogen state follicles resting in the dermal layer, and a gradation of effect is observed as you move closer to the injection site. […] FIG. 4 is a photograph which illustrates the histological section from a mouse injection with glycyl-L-histidyl-L-lysyl-L-valyl-L-phenylalanyl-L-valine:copper(II). The area of injection is on the right side of the photograph. A decrease in hair follicle density and the subcutaneous fat layer is observed at increasing distance from the injection site.
It is known that the thickness of this fat layer is directly associated with hair growth. This increase in subcutaneous fat is shown by taking a biopsy sample at day 21 through the area and sectioning for histology slides. […] The injected area is on the right with the adjacent uninjected area on the left of the photograph.
A group of ten mice were shaved and injected once with glycyl-L-histidyl-L-lysine decyl ester:copper(II) at a dose of 500 micrograms per mouse. […]

Experiment [3] relates to hair growth. Put plainly: Stimulation of hair growth in shaved mice by daily topical application. It is filed as in vivo. As to conditions: treated daily; 1% (w/w) in Nonocynol-9 5% / Unibase Cream 94%; peptide to metal ion 2:1. The text has this: Hair growth at the treated site is considered a positive response.
[4] abbreviates: two locations, peptide to metal ion 2:1.
[5] abbreviates: dose 0.5 mg, two locations, peptide to metal ion 2:1.
[6] abbreviates: dose 1.0 mg, two locations, peptide to metal ion 2:1.
Where [7] appears, read: Exp. 1, dose 500 mg, intradermally in two locations.

For the substance “L-lysyl-L-histidyl-glycine octyl ester:copper(II) [LHG-Octyl:Cu]”, the “significant acceleration of hair growth within, following the injection” value in the experiment on hair growth [1] (setting [4]) was 2-3 weeks. Further, in the experiment on hair growth [1] (setting [5]), the “POSITIVE RESPONSE (No. Positive/Total No.)” value is reported as 8/8 and the “POSITIVE RESPONSE, percent” value stood at 100%. Also, in the experiment on hair growth [1] (setting [6]), the “POSITIVE RESPONSE (No. Positive/Total No.)” value was 5/5 and the “POSITIVE RESPONSE, percent” value is reported as 100%.

In the case of “L-lysyl-L-histidyl-glycyl-L-valyl-L-phenylalanyl-L-valine:copper(II) [LHGVFV:Cu]”, in the experiment on hair growth [1] (setting [4]), the “significant acceleration of hair growth within, following the injection” value is 2-3 weeks. Moreover, in the experiment with hair growth [1] (setting [5]), the “POSITIVE RESPONSE (No. Positive/Total No.)” value is on record as 9/10 and the “POSITIVE RESPONSE, percent” value was determined as 90%. Besides, in the experiment on hair growth [1] (setting [6]), the “POSITIVE RESPONSE (No. Positive/Total No.)” value is 5/5 and the “POSITIVE RESPONSE, percent” value was 100%.

For “glycyl-L-(3-methyl)-histidyl-L-lysyl-glycyl-L-tryptophan:copper(II)”, in the experiment on hair growth [1] (Example 14: various doses, intradermally in two locations), the “hair growth noted within, following the injections” value is 2-3 weeks. Besides, the “POSITIVE RESPONSE (No. Positive/Total No.)” value was 5/5 in the experiment on hair growth [1] (setting [7]) and 5/5 with hair growth [1] (Exp. 2, intradermally in two locations). Moreover, the “POSITIVE RESPONSE, percent” value stood at 100% in the experiment with hair growth [1] (setting [7]) and 100% in the experiment with hair growth [1] (Exp. 2, dose 250 mg, intradermally in two locations).

Take “glycyl-L-histidyl-L-lysine decyl ester:copper(II)”: the “significant acceleration of hair growth within, following injection” value (“significant acceleration … following injection” below) in the experiment on hair growth [1] (500 micrograms per mouse) was 2-3 weeks. In the experiment on hair growth [1], the “hair growth (photograph of injected mice)” value is listed as “stimulated hair growth”. For the same substance, in experiment [2] (biopsy of area of accelerated growth, 500 micrograms per mouse, injected once), the “hair shaft units within the subcutaneous fat layer” value was “marked proliferation of hair shaft units; also recorded: marked proliferation of hair shafts”. Besides, the “hair follicles in histological sections” value in experiment [2] was “increased hair growth, fat cell layer and increased hair follicle density”.

In the case of “glycyl-L-histidyl-L-lysine octyl ester:copper(II) [GHL Octyl:Cu(II)]”, the “POSITIVE RESPONSE (No. Positive/Total No.)” value with hair growth [1] (500 micrograms per mouse, two locations, peptide to metal ion 2:1, hair growth at both sites = positive) was 4/4. Also, the “significant acceleration … following injection” value with hair growth [1] (500 micrograms per mouse) is given as 2-3 weeks. Also, in experiment [2] (biopsy at day 21, 500 micrograms per mouse, injected once, versus adjacent uninjected area), the “increase in the subcutaneous fat layer in the skin near the injection site (measurements)” value was “approximately threefold increase”. For the same substance, the “number and size of the fat cells” value in experiment [2] (biopsy at day 21, injected area versus adjacent uninjected area) was “obvious increase in both the number and size of the fat cells”. Also, the “subcutaneous fat layer in histological sections” value in experiment [2] (listed as glycyl-L-histidyl-L-lysine n-octyl ester:copper(II)) is listed as “significant increase in the thickness of the subcutaneous fat layer”.

In the case of “glycyl-L-histidyl-L-lysine palmityl ester:copper(II)”, the “significant acceleration … following injection” value with hair growth [1] (500 micrograms per mouse) is 2-3 weeks. Besides, the “hair follicles in histological sections” value in experiment [2] is listed as “large number of developing hair follicles within the subcutaneous fat layer”.

“glycyl-L-histidyl-L-lysyl-L-valyl-L-phenylalanyl-L-valine:copper(II)”: in the experiment with hair growth [1] (0.5 mg injection), the “diameter of circle of growth” value is “approximately 0.5 cm”. In addition, the “% POS. RESPONSE” value in the experiment on hair growth [1] (dose 0.10 mg/inj., injected under the skin in two locations) is on record as 86%. Further, the “% POS. RESPONSE” value in the experiment with hair growth [1] (dose 0.25 mg/inj., two locations) is 89%. Moreover, the “% POS. RESPONSE” value with hair growth [1] (dose 0.50 mg/inj., two locations) is 89%. Further, the “% POS. RESPONSE” value with hair growth [1] (dose 1.00 mg/inj., two locations) was found to be 95%. For the same substance, in the experiment with hair growth [1] (following injection), the “active hair growth takes place between” value was 14 to 20 days, the “indications of hair growth seen within” value is recorded as no more than 10 days and the “maximum effect seen by” value was no more than 28 days. In addition, the “stimulated hair growth at and around the injection site by days” value in the experiment with hair growth [1] (increasing doses, two locations, shaved on day 1) fell in the range of 14 to 21 days. The “hair growth at 25 days from the date of injection (photograph)” value in the experiment with hair growth [1] (single injection site, versus control mouse injected with saline) is on record as “accelerated hair growth”. In the experiment with hair growth [1] (summary of series of experiments of Table 1, no response with saline), the “positive response, % of the mice injected” value was 80-90%. Besides, the “hair growth (photograph of injected mice)” value in the experiment on hair growth [1] is listed as “accelerated hair growth at two injection sites”. For the same substance, in the experiment with hair growth [3], the “mice showing accelerated hair growth in the area of topical application (number)” value was “Four of the five” and the “mice showing accelerated hair growth in the area of topical application (percent)” value came out at 80%. In experiment [2], the “hair follicles in histological sections” value is “anagen state follicles” and the “subcutaneous fat layer in histological sections” value was “thickening of the fat layer”.

(Values after patent US5120831A, “Metal-peptide compositions” (ProCyte Corporation, priority 1989, dated 1992).)
